Tests used:
[1] = tested on: cAMP in the vicinity of HSP20; experiment: cAMP FRET with cytosolic and HSP20-targeted reporters in cardiac myocytes; type: cell-based, rat
Excerpt: FIG. 5. Measurement of relative cAMP concentration in the vicinity of HSP20 using targeted cAMP FRET probes. A, Representative traces showing FRET ratios that indicate relative cAMP concentrations measured by cytosolic and HSP20 targeted cAMP reporter constructs. B, Upper panel, graphical depiction of maximum FRET ratios achieved using both cytosolic and HSP20-targeted probes following treatment with isoprenaline (Iso), rolipram (Roli) and IBMX. Lower panel, images of the localisation of cytosolic and HSP20-targeted cAMP reporter constructs.
The Hsp20-targeted cAMP FRET probe was generated by cloning the Hsp20 open reading frame, excluding the stop codon, immediately 5′ to the EPACG-based FRET sensor^55. Hsp20 open reading frame was amplified from the Ultimate™ ORF clone IOH57317 (Invitrogen) using the following primers to incorporate HindIII restriction sites at both 5′ and 3′ ends: Forward 5′-gcacaagctt[…]-3′ (SEQ ID NO: 70) Reverse 5′-gcacaagctt[…]-3′ (SEQ ID NO: 71). […]
Primary cultures of ventricular cardiac myocytes were prepared from 1-3 day old Sprague-Dawley rats, as described above. […] FRET changes were measured following background subtraction by dividing the intensity of emissions at 480 nm and 545 nm, following excitation at 440 nm. Data are expressed as dR/R0, where R=fret ratio at time t (sec), R0=fret ratio at time zero, and dR=R−R0. […]

[2] = tested on: Phospho-Ser16 HSP20 in neonatal cardiac myocytes; experiment: Ser16 phosphorylation of endogenous HSP20 in neonatal cardiac myocytes (Western blot); type: cell-based, rat
Experimental: FIG. 2. The phosphorylation of HSP20 at Ser16 is modulated by PDE4 activity in cardiac myocytes. A, Neonatal cardiac myocytes were treated with isoprenaline for indicated times with or without pre-treatment with the PDE4-specific inhibitor, rolipram. Cellular lysates were blotted for HSP20 and Phospho-Ser16 HSP20. B, Quantifications of data from FIG. 2A (n=3). * Denotes significance at a level p<0.05 over iso treatment.
(§1) HEK293B2 cells are a stable cell line overexpressing the GFP-tagged β2AR were cultured as previously described^48. HEK293B2 cells were transiently transfected with wild type HSP20 or a phosphorylation defective HSP20 (S16A) or a phosphorylation mimic HSP20 (S16D). Neonatal cardiac myocytes were prepared and cultured as previously described^30. Cell lysis, immunopurification and western blotting was done as described before by us in some detail^48. Briefly, HEK 293 cells were transiently transfected with wild-type HSP20 by using Polyfect Transfection Reagent (Qiagen). Transfected HEK 293 cells were treated with 10 μM bs906 or 10 μM control peptide for 0, 15, 30, 60 and 120 min. Control and treated transfected HEK 293 cells were then washed thrice with ice cold PBS (phosphate buffered saline) before cellular lysates were prepared. Cellular lysates were prepared in lysis buffer containing 25 mM Hepes, pH 7.5, 2.5 mM EDTA, 50 mM NaCl, 50 mM NaF, […], 10% (v/v) glycerol, 1% (v/v) Triton X-100 and Complete™ EDTA-free protease inhibitor cocktail tablets (Roche). Protein concentration of lysates were determined using the Bradford assay and all samples were equalised for protein concentration. Proteins were separated by SOS/PAGE (4-12% Bis-Tris gels) and transferred onto nitrocellulose membranes for Western blotting. Antibodies were used to detect phospho-proteins and native proteins in lysates from control and treated cells
To determine whether inhibition of PDE4 activity had similar effects on endogenous phospho-HSP20 levels in heart cells, similar experiments were undertaken using neonatal cardiomyocytes (FIG. 2).

[3] = tested on: Phospho-Ser16 HSP20 in HEKB2 cells; experiment: Ser16 phosphorylation of HSP20 in HEKB2 cells overexpressing HSP20 (Western blot); type: cell-based; settings: HEKB2 cells
Experimental: FIG. 1. The phosphorylation of HSP20 at Ser16 is modulated by PDE4 activity in HEKB2 cells. A, HEKB2 cells overexpressing HSP20 or HSP20 ser16-Ala mutant were treated with isoprenaline for indicated times. Cellular lysates were blotted for HSP20 and Phospho-Ser16 HSP20. B, HEKB2 cells overexpressing HSP20 were treated with isoprenaline for indicated times, Cellular lysates were blotted for HSP20 and Phospho-Ser16 HSP20. C, HEKB2 cells overexpressing HSP20 were treated with isoprenaline for indicated times following pre-treatment with the PDE4-specific inhibitor, rolipram. Cellular lysates were blotted for HSP20 and Phospho-Ser16 HSP20. D, Quantifications of data from FIGS. 1B and 1C (n=4). * Denotes significance at a level p<0.05 E, Lysate from untransfected HEKB2 cells was blotted for HSP20 and Phospho-Ser16 HSP20.
as §1
In contrast to this, when we transfected these cells with a phospho-null mutant form, Ser16Ala-Hsp20, then no such change was observed (FIG. 1A). In order to evaluate whether PDE4 activity played a role in regulating this phosphorylation process in Hsp20-transfected HEKB2 cells, cells that had either been pre-treated or not with the PDE4 selective inhibitor rolipram were subsequently challenged with isoprenaline (1 μM) (FIGS. 1B and C). […] Endogenous levels of phospho-HSP20 or HSP20 were not detectable in HEKB2 cells (FIG. 1E).

[4] = tested on: pS16-Hsp20 in SH-SY5Y cells; experiment: Cell based Hsp20-PDE4D disruptor assay, nucleofected SH-SY5Y cells, pS16-Hsp20 Western blot; set-up: species or system human; settings: SH-SY5Y cells nucleofected with 500 μM peptide, 2 hours
Experimental: FIG. 9. Disrupter induced HSP20 phosphorylation SH-SY5Y cells nucleofected with 500 μM of each peptide and incubated for 2 hours prior to harvesting. Each assay was blotted for Hsp20, pS16-Hsp20 and tubulin. Changes in levels of phospho-Hsp20 relative to DMSO only controls were quantified through densitometry analysis and each assay was normalised to α-tubulin loading control. The results are the average of three separate experiments and error bars represent SEM. *=p<0.05, **=p<0.01 compared to DMSO only controls (Student-T-test)
SDS-PAGE analysis was done on NuPage® pre-cast gels X-cell apparatus (Invitrogen, Paisley) using MES-SDS running buffer, Samples were reduced in Laemmli 2× loading buffer (4% SOS) with 5% β-mercaptoethanol. For Western Blotting (WB) analysis, samples were transferred using NuPage® X-cell blotting module onto a nitrocellulose membrane. Membranes were blocked using 5% Milk in 1×TBST (w/v). Antibodies were incubated in 1% milk in 1×TBST (w/v) for either 1 hour at room temperature or overnight at 4° C. Signals were detected using enhanced chemiluminescence system (Pierce) and developed on an X-omat film developer. Subsequent densitometry analysis was carried out using Quantity One (Bio-Rad).
SH-SY5Y cells (ATCC-CRL-2266) were grown in Dulbecco's Modified Eagle's Medium (DMEM) and F12-Ham's at a 1:1 ratio, media was supplemented with 10% (v/v) fetal bovine serum (FBS), 1% (v/v) L-Glutamine, 1% (v/v) Minimum Essential Medium—With Non-essential Amino Acids (MEM-NAA) and 1% (v/v) Pen/strep. Cells were cultured in a humidified, 5% (v/v) CO2, 37° C. incubator.
SH-SY5Y cells were nucleofected using Cell Line Nucleofector® Kit-V in accordance with manufacturers protocol (Amaxa Biosystems). Setting A-23 on the Nucleofector I device was used which increases cell viability. For each assay, 500 μM of disrupter peptide was incubated with 100 μl of nucleofection solution containing approximately 2×10^6 cells. After nucleofection cells were re-suspended in 500 μl of culture media before being transferred to a 6 well plate with a final volume of 2 ml per well. Cells were incubated for 2 hours prior to harvesting with […] containing protease and phosphatase inhibitors (Roche).
As the cell permeability of the peptides is unknown we used an electroporation technique to introduce the peptides into the SH-SY5Y cells. The Amaxa cell-line specific Nucleofector Kit V (Lonza) was used to transfect the peptides into the cells. […] Each assay used a final concentration of 500 μM of peptide in nucleofector solution containing approximately 2×10^6 SH-SY5Y cells. As peptides were dissolved in 100% DMSO, control transfections with DMSO only were used to compare any changes in phospho-Hsp20 levels. After each transfection the solution was reconstituted in culture media and incubated for 2 hours to allow for cell adhesion prior to the harvesting of viable cells.

[5] = target: T1, His-Hsp20 (Homo sapiens, UniProt O14558); experiment: SPOT peptide array overlaid with His-Hsp20; type: binding; settings: overlay with 10 μg/ml purified His-Hsp20
T1 construct: made in house; host or cells: E. coli BL21
T1 sequence (O14558 1-160): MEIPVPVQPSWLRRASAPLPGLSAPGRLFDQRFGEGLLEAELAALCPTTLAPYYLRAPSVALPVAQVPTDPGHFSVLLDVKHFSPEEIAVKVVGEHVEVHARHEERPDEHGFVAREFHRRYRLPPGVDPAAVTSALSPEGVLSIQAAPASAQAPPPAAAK
Experimental: A variety of peptides were generated and SPOT-synthesised onto slides which were then overlaid with 10 μg/ml of purified His-Hsp20. Interaction with peptides and Hsp20 was evaluated by probing slides with anti-His or Hsp20 antibodies and analysed using enhanced chemi-luminescence techniques, Negative controls used anti-His antibody only with no overlay of His-Hsp20 protein (data not shown). Positive interaction domains were then subjected to further rounds of truncations and key endogenous residues were substituted for non-native residues to ascertain what effects this would have in the binding of Hsp20.
This was done as described in detail elsewhere^41.
PDE4 isoform localisation invariably depends on protein-protein interactions, with PDE4s shown to associate with a diverse group of interacting partners such as RACK1^32, 36, βarrestin^36, β1-Ar^37, DISC1^38, the p75 neurotrophin receptor^39 and the cardiac IKs potassium channel^40. One method that has been pivotal in mapping the sites of association between PDE4s and their binding partners is peptide array^36. SPOT immobilised peptide libraries of PDE4 sequences have been utilised to accurately predict binding domains for partner proteins. Here we have employed this novel technique to define the HSP20 binding site within the sequence of PDE4D5, an isoform that is endogenously expressed in cardiomyocytes. Peptide arrays of overlapping 25-mer peptides, sequentially shifted by 5 amino acids and spanning the entire sequence of PDE4D5, were incubated with purified recombinant HSP20-6his. Dark spots represent positive areas of HSP20 interaction whereas clear spots are negative for the association (FIG. 4A). While no signal was observed when the arrays were overlaid with BSA, positive signals were obtained for 25mer peptides 93 to 96 following HSP20-6His overlay. Peptides 93 to 96 span the amino acid sequence Y^461-K^500 within the conserved catalytic domain of PDE4D5 (FIG. 4A: middle panels). […]

CC(C)Cn1c(=O)n(C)c(=O)c2[nH]cnc21 [IBMX]
cAMP FRET response, HSP20-targeted reporter compared with cytosolic probe [1]: identical maximal response

COc1ccc(C2CNC(=O)C2)cc1OC1CCCC1 (stereo not drawn) [rolipram]
phospho-HSP20 levels ([2]; cardiomyocytes, PDE4 inhibition alone): marked increase in phospho-HSP20 levels
isoprenaline-induced increase in endogenous phospho-HSP20 levels ([2]; neonatal cardiomyocytes, rolipram pre-treatment): markedly augmented
cAMP FRET response, HSP20-targeted reporter compared with cytosolic probe [1]: clearly greater in the HSP20 targeted reporter
isoprenaline-stimulated HSP20 phosphorylation ([3]; rolipram pre-treatment then isoprenaline 1 μM): increased isoprenaline-stimulated HSP20 phosphorylation
phospho-HSP20 levels compared to resting cells ([3]; rolipram treatment alone): clear increase in phospho-HSP20 levels

Ac-FQNLTR-NH2 [Peptide 5]
pS16-Hsp20 levels relative to DMSO only controls [4]: inability
binding of Hsp20 to peptide on array [5]: shown to bind HSP20

Ac-GFK-NH2 (Ac-Gly-Phe-Lys-NH2) [Peptide 17]
pS16-Hsp20 levels relative to DMSO only controls [4]: indistinguishable from DMSO only controls
binding of Hsp20 to peptide on array [5]: shortest size

Ac-KLL-NH2 (Ac-Lys-Leu-Leu-NH2) [Peptide 10]
pS16-Hsp20 levels relative to DMSO only controls [4]: indistinguishable from DMSO only controls
binding of Hsp20 to peptide on array [5]: shortest size
